Measured values as given in the supplement of paper PMC10307832.

Tests used:
Test in all cases: relative viability (nuclei count vs DMSO), 5 days (fraction); higher = more cells survive
[1] = compound: COCC[n+]1c2c(n(Cc3cnccn3)c1C)C(=O)c1ccccc1C2=O [YM155] + CS(=O)(=O)CCNCc1ccc(-c2ccc3ncnc(Nc4ccc(OCc5cccc(F)c5)c(Cl)c4)c3c2)o1 [Lapatinib] (partner 2 µM)
In short: (§1)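 After 5 days of treatment, lung cancer cells in 1536-well plates were fixed and stained in a single step (final 0.05% Triton X-100, 1% formaldehyde, 1 ug/ml Hoechst) and their nuclei counted on 4× images. Treatment had been applied by pin tool the day after seeding as one drug alone or as a fixed anchor-drug dose with five library-drug doses (not always all listed) in √10 steps. Relative viability is the nuclei count of treated wells divided by that of vehicle wells, and values are medians of duplicate plates.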

[2] = compound: COCC[n+]1c2c(n(Cc3cnccn3)c1C)C(=O)c1ccccc1C2=O [YM155] + CC(C)C[C@H](NC(=O)[C@H](Cc1ccccc1)NC(=O)c1cnccn1)B(O)O [Bortezomib] (partner 0.002 µM)
In short: as §1

[3] = compound: CC(C)(C)c1cc(NC(=O)Nc2ccc(-c3cn4c(n3)sc3cc(OCCN5CCOCC5)ccc34)cc2)no1 [Quizartinib] + Cc1cc(Nc2cc(N3CCN(C)CC3)nc(Sc3ccc(NC(=O)C4CC4)cc3)n2)n[nH]1 [Tozasertib] (partner 0.1 µM)
In short: as §1

[4] = compound: CC(C)(C)c1cc(NC(=O)Nc2ccc(-c3cn4c(n3)sc3cc(OCCN5CCOCC5)ccc34)cc2)no1 [Quizartinib] + N=C(N)NC(=N)NCCc1ccccc1 [Phenformin] (partner 250 µM)
In short: as §1

Cell Line: CAL-12T
- relative viability ([1]; first compound 0.006325 µM): 0.768
- relative viability ([1]; first compound 0.02 µM): 0.61
- relative viability ([1]; first compound 0.06325 µM): 0.588
- relative viability ([2]; first compound 0.006325 µM): 1.04
- relative viability ([2]; first compound 0.02 µM): 1.29
- relative viability ([2]; first compound 0.06325 µM): 0.895
- relative viability ([3]; first compound 0.001 µM): 0.32
- relative viability ([3]; first compound 0.003162 µM): 0.283
- relative viability ([3]; first compound 0.01 µM): 0.315
- relative viability ([3]; first compound 0.03162 µM): 0.234
- relative viability ([3]; first compound 0.1 µM): 0.199
- relative viability ([4]; first compound 0.001 µM): 0.587
- relative viability ([4]; first compound 0.003162 µM): 0.533
- relative viability ([4]; first compound 0.01 µM): 0.66
- relative viability ([4]; first compound 0.03162 µM): 0.435
- relative viability ([4]; first compound 0.1 µM): 0.39

Cell Line: IA-LM
- relative viability ([1]; first compound 0.002 µM): 0.781
- relative viability ([1]; first compound 0.006325 µM): 0.741
- relative viability ([1]; first compound 0.02 µM): 0.652
- relative viability ([1]; first compound 0.06325 µM): 0.283
- relative viability ([2]; first compound 0.002 µM): 0.806
- relative viability ([2]; first compound 0.006325 µM): 0.78
- relative viability ([2]; first compound 0.02 µM): 0.874
- relative viability ([2]; first compound 0.06325 µM): 0.737

Cell Line: ChaGo-K-1
- relative viability ([2]; first compound 0.002 µM): 1.02
- relative viability ([2]; first compound 0.006325 µM): 1.01
- relative viability ([2]; first compound 0.02 µM): 0.927
- relative viability ([2]; first compound 0.06325 µM): 0.956
- relative viability ([3]; first compound 0.001 µM): 0.235
- relative viability ([3]; first compound 0.003162 µM): 0.234
- relative viability ([3]; first compound 0.01 µM): 0.209
- relative viability ([3]; first compound 0.03162 µM): 0.205
- relative viability ([3]; first compound 0.1 µM): 0.197
- relative viability ([4]; first compound 0.001 µM): 0.516
- relative viability ([4]; first compound 0.003162 µM): 0.494
- relative viability ([4]; first compound 0.01 µM): 0.455
- relative viability ([4]; first compound 0.03162 µM): 0.443
- relative viability ([4]; first compound 0.1 µM): 0.421

Cell Line: LU99A
- relative viability ([1]; first compound 0.002 µM): 0.965
- relative viability ([1]; first compound 0.006325 µM): 0.884
- relative viability ([1]; first compound 0.02 µM): 0.809
- relative viability ([1]; first compound 0.06325 µM): 0.589
- relative viability ([2]; first compound 0.002 µM): 1.17
- relative viability ([2]; first compound 0.006325 µM): 1.11
- relative viability ([2]; first compound 0.02 µM): 1.16
- relative viability ([2]; first compound 0.06325 µM): 0.965
- relative viability ([3]; first compound 0.001 µM): 0.288
- relative viability ([3]; first compound 0.003162 µM): 0.274
- relative viability ([3]; first compound 0.01 µM): 0.262
- relative viability ([3]; first compound 0.03162 µM): 0.259
- relative viability ([3]; first compound 0.1 µM): 0.272
- relative viability ([4]; first compound 0.001 µM): 0.774
- relative viability ([4]; first compound 0.003162 µM): 0.78
- relative viability ([4]; first compound 0.01 µM): 0.904
- relative viability ([4]; first compound 0.03162 µM): 0.533
- relative viability ([4]; first compound 0.1 µM): 0.248

Cell Line: EKVX
- relative viability ([1]; first compound 0.002 µM): 0.214
- relative viability ([1]; first compound 0.006325 µM): 0.286
- relative viability ([1]; first compound 0.02 µM): 0.221
- relative viability ([1]; first compound 0.06325 µM): 0.182
- relative viability ([2]; first compound 0.002 µM): 0.955
- relative viability ([2]; first compound 0.006325 µM): 0.934
- relative viability ([2]; first compound 0.02 µM): 1.08
- relative viability ([2]; first compound 0.06325 µM): 0.984
- relative viability ([3]; first compound 0.001 µM): 0.176
- relative viability ([3]; first compound 0.003162 µM): 0.323
- relative viability ([3]; first compound 0.01 µM): 0.347
- relative viability ([3]; first compound 0.03162 µM): 0.369
- relative viability ([3]; first compound 0.1 µM): 0.334
- relative viability ([4]; first compound 0.001 µM): 0.21
- relative viability ([4]; first compound 0.003162 µM): 0.24
- relative viability ([4]; first compound 0.01 µM): 0.238
- relative viability ([4]; first compound 0.03162 µM): 0.244
- relative viability ([4]; first compound 0.1 µM): 0.25

Cell Line: LC-2-ad
- relative viability ([1]; first compound 0.002 µM): 0.997
- relative viability ([1]; first compound 0.006325 µM): 0.92
- relative viability ([1]; first compound 0.02 µM): 0.946
- relative viability ([1]; first compound 0.06325 µM): 0.907
- relative viability ([2]; first compound 0.002 µM): 0.975
- relative viability ([2]; first compound 0.006325 µM): 1.03
- relative viability ([2]; first compound 0.02 µM): 1.02
- relative viability ([2]; first compound 0.06325 µM): 0.947
- relative viability ([3]; first compound 0.001 µM): 0.373
- relative viability ([3]; first compound 0.003162 µM): 0.436
- relative viability ([3]; first compound 0.01 µM): 0.451
- relative viability ([3]; first compound 0.1 µM): 0.451
- relative viability ([4]; first compound 0.001 µM): 0.498
- relative viability ([4]; first compound 0.003162 µM): 0.639
- relative viability ([4]; first compound 0.01 µM): 0.579
- relative viability ([4]; first compound 0.1 µM): 0.502

Cell Line: EBC-1
- relative viability ([1]; first compound 0.002 µM): 0.229
- relative viability ([1]; first compound 0.006325 µM): 0.203
- relative viability ([1]; first compound 0.02 µM): 0.208
- relative viability ([1]; first compound 0.06325 µM): 0.196
- relative viability ([2]; first compound 0.002 µM): 0.613
- relative viability ([2]; first compound 0.006325 µM): 0.458
- relative viability ([2]; first compound 0.02 µM): 0.566
- relative viability ([2]; first compound 0.06325 µM): 0.593

Cell Line: NCI-H1395
- relative viability ([1]; first compound 0.002 µM): 1.06
- relative viability ([1]; first compound 0.006325 µM): 1.05
- relative viability ([1]; first compound 0.02 µM): 1.25
- relative viability ([1]; first compound 0.06325 µM): 1.13
- relative viability ([3]; first compound 0.001 µM): 0.873
- relative viability ([3]; first compound 0.003162 µM): 0.686
- relative viability ([3]; first compound 0.01 µM): 0.782
- relative viability ([3]; first compound 0.03162 µM): 0.814
- relative viability ([3]; first compound 0.1 µM): 0.682
- relative viability ([4]; first compound 0.001 µM): 0.437
- relative viability ([4]; first compound 0.003162 µM): 0.447
- relative viability ([4]; first compound 0.01 µM): 0.46
- relative viability ([4]; first compound 0.03162 µM): 0.468
- relative viability ([4]; first compound 0.1 µM): 0.494

Cell Line: SW 900
- relative viability ([3]; first compound 0.001 µM): 0.57
- relative viability ([3]; first compound 0.003162 µM): 0.506
- relative viability ([3]; first compound 0.03162 µM): 0.344
- relative viability ([3]; first compound 0.1 µM): 0.39
- relative viability ([4]; first compound 0.001 µM): 0.618
- relative viability ([4]; first compound 0.003162 µM): 0.685
- relative viability ([4]; first compound 0.03162 µM): 0.586
- relative viability ([4]; first compound 0.1 µM): 0.72

Cell Line: LCLC-103H
- relative viability ([2]; first compound 0.002 µM): 1.01
- relative viability ([2]; first compound 0.006325 µM): 1.06
- relative viability ([2]; first compound 0.02 µM): 1.17
- relative viability ([2]; first compound 0.06325 µM): 1.1
- relative viability ([3]; first compound 0.001 µM): 0.391
- relative viability ([3]; first compound 0.003162 µM): 0.47
- relative viability ([3]; first compound 0.01 µM): 0.441
- relative viability ([3]; first compound 0.03162 µM): 0.491
- relative viability ([3]; first compound 0.1 µM): 0.522
- relative viability ([4]; first compound 0.001 µM): 0.306
- relative viability ([4]; first compound 0.003162 µM): 0.276
- relative viability ([4]; first compound 0.01 µM): 0.341
- relative viability ([4]; first compound 0.03162 µM): 0.337
- relative viability ([4]; first compound 0.1 µM): 0.361
